Data from the supplement of paper PMC11208160.

experiment: recombinant UMI read abundance after kanamycin selection (control-corrected) (log10(CPM+1)); higher = more efficient recombination; extreme values may be limits of the assay; sequences stand for … in AGTGCAGAGAAAATCGGCCAGTTTTCTCTGCCTGCAGTCCGCATGCCGTGGGACCCCTTGGGTTCTAACCTGTTGCCTAGATTTATGCAGCGGACTGCCTTTCTCCCAAAGTGATAAACCGG…AGGTTGGTTTCACT; site = the 11-nt donor
Method: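 Pooled E. coli donor-specificity screen for the IS621 bridge recombinase. Each library member carries a reprogrammed 11-nt donor and a full-length LE bridge RNA expressed in cis from the natural promoter, with a paired donor-binding loop (8-nt LDG + 4-nt RDG) and a target-binding loop fixed to T5. It is co-electroporated with a T5 target plasmid; recombinase is induced with 0.07 mM IPTG and recombinants are selected on kanamycin. UMIs are counted as CPM, averaged over two biological replicates and corrected by the unselected control. Molecule = full bridge RNA written as DNA, built from the T5 scaffold: LDG = donor specificity nt 1-8, RDG = reverse complement of nt 8-11.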
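Further: IS621 bridge recombinase in Escherichia coli cells against a fixed T5 target plasmid.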

Row | Sequence | recombinant UMI read abundance (log10)
1 | ACTAGTGCATGGACCGGTTTTCCCGGTAATCCGTATTTGGT (site ACTAGTCCTAC) | 0.0182
2 | ACTAGTGCATGGACCGGTTTTCCCGGTAATCCGTATTTGGT (site ACTAGTGCTAA) | 0.00318
3 | ACTAGTGCATGGACCGGTTTTCCCGGTAATCCGTATTTGGT (site ACTAGTGCTAC) | 1.55
4 | ACTAGTGCATGGACCGGTTTTCCCGGTAATCCGTATTTGGT (site ACTAGTGCTAG) | 0.699
5 | ACTAGTGCATGGACCGGTTTTCCCGGTAATCCGTATTTGGT (site ACTAGTGCTAT) | 1.2
6 | ACTAGTGCATGGACCGGTTTTCCCGGTAATCCGTATTTGGT (site ACTAGTGCTCC) | 0.0239
7 | ACTAGTGCATGGACCGGTTTTCCCGGTAATCCGTATTTGGT (site ACTAGTGCTGC) | 0
8 | ACTAGTGCATGGACCGGTTTTCCCGGTAATCCGTATTTGGT (site ACTAGTGCTTC) | 0.0165
9 | ACTAGTGCATGGACCGGTTTTCCCGGTAATCCGTATTTGGT (site ACTAGTTCTAC) | 0.264
10 | ACTAGTGCATGGACCGGTTTTCCCGGTAATCCGTATTTGGT (site ACTATTGCTAC) | 0.975
11 | ACTAGTGCATGGACCGGTTTTCCCGGTAATCCGTATTTGGT (site ACTCGTGCTAC) | 0.265
12 | ACTAGTGCATGGACCGGTTTTCCCGGTAATCCGTATTTGGT (site ACTGGTGCTAC) | 0.583
13 | ACTAGTGCATGGACCGGTTTTCCCGGTAATCCGTATTTGGT (site ACTTGTGCTAC) | 0.26
14 | ACTAGTGCATGGACCGGTTTTCCCGGTAATCCGTATTTGGT (site AGTAGTGCTAC) | 0.424
15 | ACTAGTGCATGGACCGGTTTTCCCGGTAATCCGTATTTGGT (site ATTAGTGCTAC) | 1.01
16 | ACTAGTGCATGGACCGGTTTTCCCGGTAATCCGTATTTGGT (site CCTAGTGCTAC) | 0.821
17 | ACTAGTGCATGGACCGGTTTTCCCGGTAATCCGTATTTGGT (site GCTAGTGCTAC) | 0.338
18 | ACTAGTGCATGGACCGGTTTTCCCGGTAATCCGTATTTGGT (site TCTAGTGCTAC) | 0.86
19 | ACTAGTTCATGGACCGGTTTTCCCGGTAATCCGTATTTGGT (site ACTAGTACTAC) | 0.293
20 | ACTAGTTCATGGACCGGTTTTCCCGGTAATCCGTATTTGGT (site ACTAGTCCTAC) | 0.0335
21 | ACTAGTTCATGGACCGGTTTTCCCGGTAATCCGTATTTGGT (site ACTAGTGCTAC) | 0.00523
22 | ACTAGTTCATGGACCGGTTTTCCCGGTAATCCGTATTTGGT (site ACTAGTTCTAC) | 1.89
23 | ACTCCAGCATGGACCGGTTTTCCCGGTAATCCGTATTTGCG (site ACTCCAGCTCG) | 0.0064
24 | ACTCCTGCATGGACCGGTTTTCCCGGTAATCCGTATTTGAC (site ACTCCTGCTGT) | 0.671

Row | Sequence | recombinant UMI read abundance (log10)
25 | ACTCGAACATGGACCGGTTTTCCCGGTAATCCGTATTTGAG (site ACTAGAACTCT) | 0.00419
26 | ACTCGAACATGGACCGGTTTTCCCGGTAATCCGTATTTGAG (site ACTCGAACTCT) | 1.16
27 | ACTCGAACATGGACCGGTTTTCCCGGTAATCCGTATTTGAG (site ACTGGAACTCT) | 0.00958
28 | ACTCGAACATGGACCGGTTTTCCCGGTAATCCGTATTTGAG (site ACTTGAACTCT) | 0.00429
29 | ACTCGGCCATGGACCGGTTTTCCCGGTAATCCGTATTTGGT (site ACTCGGCCTAC) | 0.00855
30 | ACTCTCCCATGGACCGGTTTTCCCGGTAATCCGTATTTGGA (site ACTCTCCCTTC) | 0.0237
31 | ACTGAAGCATGGACCGGTTTTCCCGGTAATCCGTATTTGTA (site ACTGAAGCTTA) | 2.5
32 | ACTGAGACATGGACCGGTTTTCCCGGTAATCCGTATTTGGT (site AATGAGACTAC) | 0.158
33 | ACTGAGACATGGACCGGTTTTCCCGGTAATCCGTATTTGGT (site ACTGAGACTAC) | 1.53
34 | ACTGAGACATGGACCGGTTTTCCCGGTAATCCGTATTTGGT (site AGTGAGACTAC) | 0.0694
35 | ACTGAGACATGGACCGGTTTTCCCGGTAATCCGTATTTGGT (site ATTGAGACTAC) | 0.541
36 | ACTGATGCATGGACCGGTTTTCCCGGTAATCCGTATTTGAC (site ACTGATGCTGT) | 2.08
37 | ACTGCACCATGGACCGGTTTTCCCGGTAATCCGTATTTGAG (site ACTGCACCTCT) | 0.0235
38 | ACTGCTACATGGACCGGTTTTCCCGGTAATCCGTATTTGGT (site ACTGCTACTAC) | 0.194
39 | ACTGTATCATGGACCGGTTTTCCCGGTAATCCGTATTTGCC (site ACAGTATCTTG) | 0
40 | ACTGTATCATGGACCGGTTTTCCCGGTAATCCGTATTTGCC (site ACTGTATCTGG) | 2.92
41 | ACTTACTCATGGACCGGTTTTCCCGGTAATCCGTATTTGAC (site ACTTACTCTGT) | 2.81
42 | ACTTCGACATGGACCGGTTTTCCCGGTAATCCGTATTTGCA (site ACTTCGACTTG) | 1.84
43 | ACTTCTGCATGGACCGGTTTTCCCGGTAATCCGTATTTGCC (site ACTTCTGCTGG) | 1.76
44 | ACTTCTTCATGGACCGGTTTTCCCGGTAATCCGTATTTGTC (site ACTTCTTCTGA) | 0
45 | ACTTGCTCATGGACCGGTTTTCCCGGTAATCCGTATTTGTT (site ACTTGCTCTAA) | 0.824
46 | AGAAAAGCATGGACCGGTTTTCCCGGTAATCCGTATTTGCT (site AGAAAAGCTAG) | 2.12
47 | AGAAAAGCATGGACCGGTTTTCCCGGTAATCCGTATTTGCT (site AGAAACGCTAG) | 0.464
48 | AGAAAAGCATGGACCGGTTTTCCCGGTAATCCGTATTTGCT (site AGAAAGGCTAG) | 1.38

Row | Sequence | recombinant UMI read abundance (log10)
49 | AGAAAAGCATGGACCGGTTTTCCCGGTAATCCGTATTTGCT (site AGAAATGCTAG) | 0
50 | AGAAAGACATGGACCGGTTTTCCCGGTAATCCGTATTTGTA (site AGAAAGACTTA) | 2.51
51 | AGAAAGACATGGACCGGTTTTCCCGGTAATCCGTATTTGTA (site AGGAAGACTTG) | 0
52 | AGAAAGCCATGGACCGGTTTTCCCGGTAATCCGTATTTGCT (site AGAAAGACTAG) | 0
53 | AGAAAGCCATGGACCGGTTTTCCCGGTAATCCGTATTTGCT (site AGAAAGCCTAG) | 0
54 | AGAAAGCCATGGACCGGTTTTCCCGGTAATCCGTATTTGCT (site AGAAAGGCTAG) | 0
55 | AGAAAGCCATGGACCGGTTTTCCCGGTAATCCGTATTTGCT (site AGAAAGTCTAG) | 2.3
56 | AGAACAACATGGACCGGTTTTCCCGGTAATCCGTATTTGAT (site AGAACAACTAT) | 1.63
57 | AGAACAACATGGACCGGTTTTCCCGGTAATCCGTATTTGCT (site TTTGTCCCTCC) | 0.00956
58 | AGAACATCATGGACCGGTTTTCCCGGTAATCCGTATTTGCG (site AGAACATCTCG) | 2.3
59 | AGAACCCCATGGACCGGTTTTCCCGGTAATCCGTATTTGGT (site AGAACCCCTAC) | 0.545
60 | AGAACGGCATGGACCGGTTTTCCCGGTAATCCGTATTTGCT (site AGAAAGGCTAG) | 1.08
61 | AGAACGGCATGGACCGGTTTTCCCGGTAATCCGTATTTGCT (site AGAACGGCTAG) | 2.35
62 | AGAACGGCATGGACCGGTTTTCCCGGTAATCCGTATTTGCT (site AGAAGGGCTAG) | 0
63 | AGAACGGCATGGACCGGTTTTCCCGGTAATCCGTATTTGCT (site AGAATGGCTAG) | 0
64 | AGAACTACATGGACCGGTTTTCCCGGTAATCCGTATTTGAC (site AGAACTACTGT) | 2.15
65 | AGAACTACATGGACCGGTTTTCCCGGTAATCCGTATTTGAC (site AGCACTACTGT) | 0
66 | AGAACTACATGGACCGGTTTTCCCGGTAATCCGTATTTGAC (site AGGACTACTGT) | 0.849
67 | AGAACTACATGGACCGGTTTTCCCGGTAATCCGTATTTGAC (site AGTACTACTGT) | 1.37
68 | AGAAGAGCATGGACCGGTTTTCCCGGTAATCCGTATTTGGA (site AGAAGAGCTTC) | 1.81
69 | AGAAGGGCATGGACCGGTTTTCCCGGTAATCCGTATTTGAG (site AGAAGGGCTCT) | 1.64
70 | AGAAGGGCATGGACCGGTTTTCCCGGTAATCCGTATTTGCT (site AGAAAGGCTAG) | 1.73
71 | AGAAGGGCATGGACCGGTTTTCCCGGTAATCCGTATTTGCT (site AGAACGGCTAG) | 0.0144
72 | AGAAGGGCATGGACCGGTTTTCCCGGTAATCCGTATTTGCT (site AGAAGGGCTAG) | 2.64
